{
  "source": "patent US20090082203A1",
  "about": "“INSECTICIDAL BIS(SUBSTITUTED PHENYL)-1-{[4-(SATURATED HETEROCYCLYL-SUBSTITUTED)PHENYLMETHYL]- (4-PIPERIDYL)}METHANE DERIVATIVES” (priority 2004, published 2009)",
  "tested_on": "tobacco budworm (Heliothis virescens [Fabricius])",
  "assay": "surface-treated diet test against tobacco budworm",
  "type": "in vivo",
  "settings": "for Percent Growth Inhibition: inhibition of insect weight relative to untreated controls",
  "experimental": "Candidate insecticides were evaluated for activity against the tobacco budworm (Heliothis virescens [Fabricius]) in a surface-treated diet test.\nIn this test one mL of molten (65-70° C.) wheat germ-based artificial diet was pipetted into each well of a four by six (24 well) multi-well plate (ID# 430345-15.5 mm dia.×17.6 mm deep; Corning Costar Corp., One Alewife Center, Cambridge, Mass. 02140). The diet was allowed to cool to ambient temperature before treatment with candidate insecticide.\nFor a determination of insecticidal activity, solutions of the candidate insecticides were prepared for testing using a Packard 204DT Multiprobe® Robotic System (Packard Instrument Company, 800 Research Parkway, Meriden, Conn. 06450), in which the robot first diluted a standard 50 millimolar DMSO solution of candidate insecticide with a 1:1 water/acetone solution (V/V) in a ratio of 1:7 stock solution to water/acetone. The robot subsequently pipetted 40 microliters of the so-prepared solution onto the surface of the diet in each of three wells in the 24 multi-well plate. The process was repeated with solutions of seven other candidate insecticides. Once treated, the contents of the multi-well plate were allowed to dry, leaving 0.25 millimoles of candidate insecticide on the surface of the diet, or a concentration of 0.25 millimolar. Appropriate untreated controls containing only DMSO on the diet surface were also included in this test.\nFor evaluations of the insecticidal activity of a candidate insecticide at varying rates of application, the test was established as described above using sub-multiples of the standard 50 millimolar DMSO solution of candidate insecticide. For example, the standard 50 millimolar solution was diluted by the robot with DMSO to give 5, 0.5, 0.05, 0.005, 0.0005 millimolar, or more dilute solutions of the candidate insecticide. In these evaluations there were six replicates of each rate of application placed on the surface of the diet in the 24 multi-well plate, for a total of four rates of application of candidate insecticide in each plate.\nIn each well of the test plate was placed one second instar tobacco budworm larvae, each weighing approximately five milligrams. After the larvae were placed in each well, the plate was sealed with clear polyfilm adhesive tape. The tape over each well was perforated to ensure an adequate air supply. The plates were then held in a growth chamber at 25° C. and 60% relative humidity for five days (light 14 hours/day).\nAfter the five-day exposure period insecticidal activity for each rate of application of candidate insecticide was assessed as percent inhibition of insect weight relative to the weight of insects from untreated controls, and percent mortality when compared to the total number of insects infested.\nThe test compounds of formula I are identified by numbers that correspond to those in Table 1.",
  "key": {"[1]": {"settings": "0.25 millimolar on the surface of the diet, second instar larvae, five-day exposure, compared to the total number of insects infested"}, "[2]": {"settings": "0.25 millimolar on the surface of the diet, second instar larvae, five-day exposure"}},
  "data": [
    {"smiles": "CC1(C)OC(c2ccc(C[N+]3([O-])CCC(C(O)(c4ccc(OC(F)(F)F)cc4)c4ccc(OC(F)(F)F)cc4)CC3)cc2)OC1(C)C", "note": "(centres unmarked) [Compound 126]", "values": [
      {"measurement": "Percent Mortality", "setting": "[1]", "result": 100, "unit": "%"},
      {"measurement": "Percent Growth Inhibition", "setting": "[2]", "result": 100, "unit": "%"}
    ]},
    {"smiles": "OC(c1ccc(OC(F)(F)F)cc1)(c1ccc(OC(F)(F)F)cc1)C1CCN(Cc2ccc(C3OC4CCCCC4O3)cc2)CC1", "note": "(centres unmarked) [Compound 127]", "values": [
      {"measurement": "Percent Mortality", "setting": "[1]", "result": 100, "unit": "%"},
      {"measurement": "Percent Growth Inhibition", "setting": "[2]", "result": 100, "unit": "%"}
    ]},
    {"smiles": "OC(c1ccc(Cl)c(Cl)c1)(c1ccc(Cl)c(Cl)c1)C1CCN(Cc2ccc(C3OCCO3)cc2)CC1", "note": "[Compound 145]", "values": [
      {"measurement": "Percent Mortality", "setting": "[1]", "result": 100, "unit": "%"},
      {"measurement": "Percent Growth Inhibition", "setting": "[2]", "result": 100, "unit": "%"}
    ]},
    {"smiles": "Cc1cc(CN2CCC(C(O)(c3ccc(OC(F)(F)F)cc3)c3ccc(OC(F)(F)F)cc3)CC2)ccc1C1OCCO1", "note": "[Compound 169]", "values": [
      {"measurement": "Percent Growth Inhibition", "setting": "[2]", "result": 100, "unit": "%"},
      {"measurement": "Percent Mortality", "setting": "in vivo", "result": 100, "unit": "%"}
    ]},
    {"smiles": "Cc1cc(C[N+]2([O-])CCC(C(O)(c3ccc(OC(F)(F)F)cc3)c3ccc(OC(F)(F)F)cc3)CC2)ccc1C1OCCO1", "note": "(centres unmarked) [Compound 170]", "values": [
      {"measurement": "Percent Growth Inhibition", "setting": "[2]", "result": 100, "unit": "%"},
      {"measurement": "Percent Mortality", "setting": "in vivo", "result": 100, "unit": "%"}
    ]},
    {"smiles": "OC(c1ccc(OC(F)(F)F)cc1)(c1ccc(OC(F)(F)F)cc1)C1CCN(Cc2ccc(C3OCCO3)c(Cl)c2)CC1", "note": "[Compound 171]", "values": [
      {"measurement": "Percent Mortality", "setting": "[1]", "result": 100, "unit": "%"},
      {"measurement": "Percent Growth Inhibition", "setting": "[2]", "result": 100, "unit": "%"}
    ]},
    {"smiles": "OC(c1ccc(OC(F)(F)F)cc1)(c1ccc(OC(F)(F)F)cc1)C1CCN(Cc2ccc(C3OCCO3)c(C(F)(F)F)c2)CC1", "note": "[Compound 172]", "values": [
      {"measurement": "Percent Mortality", "setting": "[1]", "result": 100, "unit": "%"},
      {"measurement": "Percent Growth Inhibition", "setting": "[2]", "result": 100, "unit": "%"}
    ]},
    {"smiles": "OC(c1ccc(OC(F)(F)F)cc1)(c1ccc(OC(F)(F)F)cc1)C1CCN(Cc2ccc(C3OCCO3)c(F)c2)CC1", "note": "[Compound 173]", "values": [
      {"measurement": "Percent Mortality", "setting": "[1]", "result": 100, "unit": "%"},
      {"measurement": "Percent Growth Inhibition", "setting": "[2]", "result": 100, "unit": "%"}
    ]},
    {"smiles": "[O-][N+]1(Cc2ccc(C3OCCO3)c(F)c2)CCC(C(O)(c2ccc(OC(F)(F)F)cc2)c2ccc(OC(F)(F)F)cc2)CC1", "note": "(centres unmarked) [Compound 175]", "values": [
      {"measurement": "Percent Mortality", "setting": "[1]", "result": 100, "unit": "%"},
      {"measurement": "Percent Growth Inhibition", "setting": "[2]", "result": 100, "unit": "%"}
    ]},
    {"smiles": "CC1COC(c2ccc(CN3CCC(C(O)(c4ccc(Cl)c(Cl)c4)c4ccc(Cl)c(Cl)c4)CC3)cc2)O1", "note": "(centres unmarked) [Compound 176]", "values": [
      {"measurement": "Percent Mortality", "setting": "[1]", "result": 100, "unit": "%"},
      {"measurement": "Percent Growth Inhibition", "setting": "[2]", "result": 100, "unit": "%"}
    ]},
    {"smiles": "CC1COC(c2ccc(C[N+]3([O-])CCC(C(O)(c4ccc(Cl)c(Cl)c4)c4ccc(Cl)c(Cl)c4)CC3)cc2)O1", "note": "(centres unmarked) [Compound 177]", "values": [
      {"measurement": "Percent Mortality", "setting": "[1]", "result": 100, "unit": "%"},
      {"measurement": "Percent Growth Inhibition", "setting": "[2]", "result": 100, "unit": "%"}
    ]},
    {"smiles": "CC1COC(c2ccc(CN3CCC(C(c4ccc(OC(F)(F)F)cc4)c4ccc(OC(F)(F)F)cc4)CC3)cc2)O1", "note": "(centres unmarked) [Compound 178]", "values": [
      {"measurement": "Percent Mortality", "setting": "[1]", "result": 100, "unit": "%"},
      {"measurement": "Percent Growth Inhibition", "setting": "[2]", "result": 100, "unit": "%"}
    ]},
    {"smiles": "CC1COC(c2ccc(CN3CCC(C(O)(c4ccc(OC(F)(F)F)cc4)c4ccc(OC(F)(F)F)cc4)CC3)cc2F)O1", "note": "(centres unmarked) [Compound 179]", "values": [
      {"measurement": "Percent Mortality", "setting": "[1]", "result": 100, "unit": "%"},
      {"measurement": "Percent Growth Inhibition", "setting": "[2]", "result": 100, "unit": "%"}
    ]},
    {"smiles": "CC1COC(c2ccc(C[N+]3([O-])CCC(C(O)(c4ccc(OC(F)(F)F)cc4)c4ccc(OC(F)(F)F)cc4)CC3)cc2F)O1", "note": "(centres unmarked) [Compound 180]", "values": [
      {"measurement": "Percent Mortality", "setting": "[1]", "result": 100, "unit": "%"},
      {"measurement": "Percent Growth Inhibition", "setting": "[2]", "result": 100, "unit": "%"}
    ]},
    {"smiles": "[O-][N+]1(Cc2ccc(C3OCCO3)c(Cl)c2)CCC(C(O)(c2ccc(OC(F)(F)F)cc2)c2ccc(OC(F)(F)F)cc2)CC1", "note": "(centres unmarked) [Compound 181]", "values": [
      {"measurement": "Percent Mortality", "setting": "[1]", "result": 100, "unit": "%"},
      {"measurement": "Percent Growth Inhibition", "setting": "[2]", "result": 100, "unit": "%"}
    ]},
    {"smiles": "[O-][N+]1(Cc2ccc(C3OCCO3)c(C(F)(F)F)c2)CCC(C(O)(c2ccc(OC(F)(F)F)cc2)c2ccc(OC(F)(F)F)cc2)CC1", "note": "(centres unmarked) [Compound 182]", "values": [
      {"measurement": "Percent Mortality", "setting": "[1]", "result": 100, "unit": "%"},
      {"measurement": "Percent Growth Inhibition", "setting": "[2]", "result": 100, "unit": "%"}
    ]},
    {"smiles": "OC(c1ccc(OC(F)(F)F)cc1)(c1ccc(OC(F)(F)F)cc1)C1CCN(Cc2ccc(CC3OCCO3)cc2)CC1", "note": "[Compound 183]", "values": [
      {"measurement": "Percent Mortality", "setting": "[1]", "result": 100, "unit": "%"},
      {"measurement": "Percent Growth Inhibition", "setting": "[2]", "result": 100, "unit": "%"}
    ]},
    {"smiles": "[O-][N+]1(Cc2ccc(CC3OCCO3)cc2)CCC(C(O)(c2ccc(OC(F)(F)F)cc2)c2ccc(OC(F)(F)F)cc2)CC1", "note": "(centres unmarked) [Compound 184]", "values": [
      {"measurement": "Percent Mortality", "setting": "[1]", "result": 100, "unit": "%"},
      {"measurement": "Percent Growth Inhibition", "setting": "[2]", "result": 100, "unit": "%"}
    ]},
    {"smiles": "[O-][N+]1(Cc2ccc(OCC3(c4ccccc4)OCCO3)cc2)CCC(C(O)(c2ccc(OC(F)(F)F)cc2)c2ccc(OC(F)(F)F)cc2)CC1", "note": "(centres unmarked) [Compound 185]", "values": [
      {"measurement": "Percent Mortality", "setting": "[1]", "result": 100, "unit": "%"},
      {"measurement": "Percent Growth Inhibition", "setting": "[2]", "result": 100, "unit": "%"}
    ]}
  ]
}
